From US20040002506A1, “Novel class of cytodifferentiating agents and histone deacetylase inhibitors, and methods of use thereof” (Sloan Kettering Institute for Cancer Research, priority 1999, published 2004)

System: Murine erythroleukemia (MEL) cells
Experiment: MEL cell differentiation assay (benzidine assay, 5-day culture)
Format: cell-based
Conditions: Table 2, "No inh" = words
Procedure: (§1) Murine erythroleukemia (MEL) cell differentiation. The MEL cell differentiation assay was used to assess the ability of Compound 1 to induce terminal differentiation. MEL cells (logarithmically dividing) were cultured with the indicated concentrations of Compound 1. Following a 5-day culture period, cell growth was determined using a Coulter Counter and differentiation was determined microscopically using the benzidine assay to determine hemoglobin protein accumulation on a per cell basis.
as §1, with “The” for “Murine erythroleukemia (MEL) cell differentiation. The”, “2” for “1”, “2.” for “1.”, “period” for “period, cell growth was determined using a Coulter Counter and”
as §1, with “The” for “Murine erythroleukemia (MEL) cell differentiation. The”, “3” for “1”, “3.” for “1.”, “period” for “period, cell growth was determined using a Coulter Counter and”
as §1, with “The” for “Murine erythroleukemia (MEL) cell differentiation. The”, “4” for “1”, “4.” for “1.”, “period” for “period, cell growth was determined using a Coulter Counter and”, “accumulaiton” for “accumulation”
All the compounds which were prepared were tested. […] Table 2 is compiled from experiments similar to the experiments described in Examples 7-10 above.

Row | Compound | MEL cell growth (cell count)
1 | O=C(/C=C/c1cccc(CC(=O)Nc2ccccc2)c1)NO [Structure 689] | 2.0 cells/ml × 10^−5
2 | O=C(/C=C/c1cccc(C(C(=O)Nc2cccc3cccnc23)C(=O)Nc2cccc3cccnc23)c1)NO [Structure 690] | 2.5 cells/ml × 10^−5
3 | O=C(CCCCCC(C(=O)Nc1ccc2ncccc2c1)C(=O)Nc1ccc2ncccc2c1)NO [Structure 692] | 18.0 cells/ml × 10^−5
